The record followed here is patent US20060257543A1, “Molecules comprising linked organic moieties as flavor modifiers for comestible compositions” (priority 2005, published 2006).

Experiment [1] concerns the target T1, hT1R1/hT1R3 umami receptor expressed in an HEK293 cell line (Homo sapiens, UniProt Q7RTX0+Q7RTX1).
T1 construct: expressed in transfected cells; host or cells: HEK293 derivative, clone I-17, expression induced with mifepristone
T1 sequence (Q7RTX1 21-841): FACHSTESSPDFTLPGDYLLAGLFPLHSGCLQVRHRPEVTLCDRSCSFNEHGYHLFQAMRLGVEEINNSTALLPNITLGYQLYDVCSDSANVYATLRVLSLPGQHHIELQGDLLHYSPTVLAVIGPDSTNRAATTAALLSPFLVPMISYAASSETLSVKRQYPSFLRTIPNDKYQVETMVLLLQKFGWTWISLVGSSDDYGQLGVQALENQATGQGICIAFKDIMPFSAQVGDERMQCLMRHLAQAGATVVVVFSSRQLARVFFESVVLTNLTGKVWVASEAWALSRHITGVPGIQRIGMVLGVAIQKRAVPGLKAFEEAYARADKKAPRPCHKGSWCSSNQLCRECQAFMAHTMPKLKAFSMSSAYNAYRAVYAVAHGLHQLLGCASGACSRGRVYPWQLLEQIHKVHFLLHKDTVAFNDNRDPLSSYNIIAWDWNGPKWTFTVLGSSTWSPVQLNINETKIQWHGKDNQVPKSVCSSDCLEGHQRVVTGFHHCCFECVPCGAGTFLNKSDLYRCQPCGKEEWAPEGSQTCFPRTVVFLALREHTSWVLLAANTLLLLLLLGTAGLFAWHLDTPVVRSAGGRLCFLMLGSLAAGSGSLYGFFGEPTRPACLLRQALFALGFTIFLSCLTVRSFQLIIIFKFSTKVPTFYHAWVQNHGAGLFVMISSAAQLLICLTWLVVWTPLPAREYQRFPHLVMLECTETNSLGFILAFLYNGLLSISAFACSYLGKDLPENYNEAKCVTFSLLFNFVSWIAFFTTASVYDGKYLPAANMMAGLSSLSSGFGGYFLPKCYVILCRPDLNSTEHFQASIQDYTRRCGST
T1 sequence (Q7RTX0 21-852): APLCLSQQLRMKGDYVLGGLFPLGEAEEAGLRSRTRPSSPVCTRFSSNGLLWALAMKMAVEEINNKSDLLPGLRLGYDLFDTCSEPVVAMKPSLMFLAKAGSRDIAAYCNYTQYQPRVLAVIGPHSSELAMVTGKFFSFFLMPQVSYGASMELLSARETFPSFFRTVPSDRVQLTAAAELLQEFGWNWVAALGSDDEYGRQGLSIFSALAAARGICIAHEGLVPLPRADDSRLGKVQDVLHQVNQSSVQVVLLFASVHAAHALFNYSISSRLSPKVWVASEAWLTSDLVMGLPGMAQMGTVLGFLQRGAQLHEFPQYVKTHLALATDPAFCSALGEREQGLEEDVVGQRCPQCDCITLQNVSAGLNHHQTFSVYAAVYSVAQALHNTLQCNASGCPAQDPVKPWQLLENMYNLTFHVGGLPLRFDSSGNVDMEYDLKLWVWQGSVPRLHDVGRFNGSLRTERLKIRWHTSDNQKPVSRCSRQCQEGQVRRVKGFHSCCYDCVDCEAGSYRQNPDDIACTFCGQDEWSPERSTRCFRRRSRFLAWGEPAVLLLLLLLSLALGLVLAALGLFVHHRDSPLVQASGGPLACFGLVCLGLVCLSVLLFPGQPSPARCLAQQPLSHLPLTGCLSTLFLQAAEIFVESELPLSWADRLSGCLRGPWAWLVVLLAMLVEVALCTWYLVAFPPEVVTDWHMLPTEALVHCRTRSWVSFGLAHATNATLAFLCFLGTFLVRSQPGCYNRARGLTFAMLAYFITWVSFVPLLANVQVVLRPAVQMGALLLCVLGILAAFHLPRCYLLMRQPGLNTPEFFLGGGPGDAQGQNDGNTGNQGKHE
The experiment is described as follows: In vitro hT1R1/hT1R3 umami taste receptor activation assay (FLIPR, dose response). The experiment is classed as cell-based. An excerpt:
In order to identify new savory flavoring agents and enhancers, including compounds with savory agonist and enhancer activities (dual activity), the tastant compounds of Formula (I) were screened in primary assays and secondary assays including compound dose response and enhancement assay. In a primary assay for potential ability to modulate umami taste, tastant compounds of Formula (I) that can be either savory flavoring agents in their own right or flavor enhancers of MSG are identified and scores of their activities are given as percentage of the maximum MSG intensity (%). In compound dose response, an EC50 is calculated to reflect the potency of the compound as a savory agonist or enhancer.
An HEK293 cell line derivative (see e.g., Chandrashekar, et al., Cell (2000) 100: 703-711) which stably expresses Gα15 and hT1R1/hT1R3 under an inducible promoter (see WO 03/001876 A2) was used to identify compounds with savory tasting properties.
Compounds disclosed in this application were initially selected based on their activity on the hT1R1/hT1R3-HEK293-Gα15 cell line. Activity was determined using an automated fluorometric imaging assay on a FLIPR instrument (Fluorometric Intensity Plate Reader, Molecular Devices, Sunnyvale, Calif.) (designated FLIPR assay). Cells from one clone (designated clone I-17) were seeded into 384-well plates (at approximately 48,000 cells per well) in a medium containing Dulbecco's modified Eagle's medium (DMEM) supplemented with GlutaMAX (Invitrogen, Carlsbad, Calif.), 10% dialyzed fetal bovine serum (Invitrogen, Carlsbad, Calif.), 100 Units/ml Penicillin G, 100 μg/ml Streptomycin (Invitrogen, Carlsbad, Calif.) and 60 pM mifepristone (to induce expression of hT1R1/hT1R3, (see WO 03/001876 A2). I-17 cells were grown for 48 hours at 37° C. I-17 cells were then loaded with the calcium dye Fluo-3AM (Molecular Probes, Eugene, Oreg.), 4 μM in a phosphate buffered saline (D-PBS) (Invitrogen, Carlsbad, Calif.), for 1.5 hours at room temperature. After replacement with 25 μl D-PBS, stimulation was performed in the FLIPR instrument and at room temperature by the addition of 25 μl D-PBS supplemented with different stimuli at concentrations corresponding to twice the desired final level. Receptor activity was quantified by determining the maximal fluorescence increases (using a 480 nm excitation and 535 nm emission) after normalization to basal fluorescence intensity measured before stimulation.
(§1) For dose-responses analysis, stimuli were presented in duplicates at 10 different concentrations ranging from 1.5 nM to 30 μM. Activities were normalized to the response obtained with 60 mM monosodium glutamate, a concentration that elicits maximum receptor response. EC50s (concentration of compound that causes 50% activation of receptor) were determined using a non-linear regression algorithm, where the Hill slope, bottom asymptotes and top asymptotes were allow to vary. Identical results were obtained when analyzing the dose-response data using commercially available software for non-linear regression analysis such as GraphPad PRISM (San Diego, Calif.).

In experiment [2] the target is T2, hT1R2/hT1R3 sweet receptor expressed in an HEK293 cell line (Homo sapiens, UniProt Q7RTX0+Q8TE23).
T2 construct: expressed in transfected cells; host or cells: HEK293 derivative, clone S-9
T2 sequence (Q8TE23 20-839): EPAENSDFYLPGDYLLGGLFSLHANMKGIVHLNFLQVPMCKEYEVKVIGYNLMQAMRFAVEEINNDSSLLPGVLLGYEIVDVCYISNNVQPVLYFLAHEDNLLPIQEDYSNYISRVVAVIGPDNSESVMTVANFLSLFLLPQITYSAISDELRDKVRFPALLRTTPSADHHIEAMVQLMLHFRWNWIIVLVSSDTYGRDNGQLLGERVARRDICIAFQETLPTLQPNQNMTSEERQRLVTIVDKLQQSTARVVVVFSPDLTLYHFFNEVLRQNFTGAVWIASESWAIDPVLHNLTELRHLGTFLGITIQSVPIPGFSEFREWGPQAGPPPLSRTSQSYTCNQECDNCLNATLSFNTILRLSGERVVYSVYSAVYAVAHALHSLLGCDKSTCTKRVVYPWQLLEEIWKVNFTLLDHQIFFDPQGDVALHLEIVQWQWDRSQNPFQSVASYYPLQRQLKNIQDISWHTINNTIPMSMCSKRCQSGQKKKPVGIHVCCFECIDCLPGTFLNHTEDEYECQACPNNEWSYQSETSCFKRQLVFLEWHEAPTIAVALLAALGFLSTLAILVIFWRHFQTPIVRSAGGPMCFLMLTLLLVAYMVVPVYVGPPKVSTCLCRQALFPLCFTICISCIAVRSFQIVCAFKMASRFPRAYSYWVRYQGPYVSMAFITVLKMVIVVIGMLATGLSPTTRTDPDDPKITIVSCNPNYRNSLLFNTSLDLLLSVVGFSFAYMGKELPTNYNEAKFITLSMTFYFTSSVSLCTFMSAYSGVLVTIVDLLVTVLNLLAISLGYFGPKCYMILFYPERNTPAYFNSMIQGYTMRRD
T2 sequence (Q7RTX0 21-852): T1 sequence (Q7RTX0 21-852)
In words: In vitro hT1R2/hT1R3 sweet taste receptor activation assay (FLIPR, dose response). The experiment is classed as cell-based. Conditions: read-out: Sweet EC50.
Excerpt: An HEK293 cell line derivative (see Chandrashekar, J., Mueller, K. L., Hoon, M. A., Adler, E., Feng, L., Guo, W., Zuker, C. S., Ryba, N. J.,. Cel,l 2000, 100, 703-711.) that stably expresses Gα15 and hT1R2/hT1R3 (see Li, X., Staszewski, L., Xu, H., Durick, K., Zoller, M., Adler, E. Proc Natl Acad Sci USA 2002, 99, 4692-4696, and PCT Publication No. WO 03/001876) was used to identify compounds with sweet taste enhancing properties. These references are hereby incorporated herein by reference for their methods of preparing and maintaing the cell lines discussed below, and for their methods for screeing compounds that inhibit the biological receptors.
Compounds covered in this document were initially selected based on their activity on the hT1R2/hT1R3—HEK293-Gα15 cell line (Li, et al. vide supra). Activity was determined using an automated fluorometric imaging assay on a FLIPR instrument (Fluorometric Intensity Plate Reader, Molecular Devices, Sunnyvale, Calif.) (designated FLIPR assay). Cells from one clone (designated S-9 cells) were seeded into 384-well plates (at approximately 50,000 cells per well) in a medium containing DMEM Low Glucose (Invitrogen, Carlsbad, Calif.), 10% dialyzed fetal bovine serum (Invitrogen, Carlsbad, Calif.), 100 Units/ml Penicillin G, and 100 μg/ml Streptomycin (Invitrogen, Carlsbad, Calif.) (Li, et al. vide supra) see also World Patent No. WO 03/001876 A2). S-9 cells were grown for 24 hours at 37° C. S-9 cells were then loaded with the calcium dye Fluo-3AM (Molecular Probes, Eugene, Oreg.), 4 μM in a phosphate buffered saline (D-PBS) (Invitrogen, Carlsbad, Calif.), for 1 hour at room temperature. After replacement with 25 μl D-PBS, stimulation was performed in the FLIPR instrument and at room temperature by the addition of 25 μl D-PBS supplemented with different stimuli at concentrations corresponding to twice the desired final level. Receptor activity was quantified by determining the maximal fluorescence increases (using a 480 nm excitation and 535 nm emission) after normalization to basal fluorescence intensity measured before stimulation.
as §1, with “60” for “1.5”, “400” for “60”, “D-fructose,” for “monosodium glutamate,”, “EC50s” for “EC50s (concentration of compound that causes 50% activation of receptor)”, “algorithm (using a Senomyx, Inc. software),” for “algorithm,”

Where two headings read alike, the source gives them in different places.

Consider `CCOc1ccc(NC(=S)NCCc2ccccn2)cc1` [Example 2], for which, in experiment [1] (read-out: EC50 for activation of a hT1R1/hT1R3 umami receptor expressed in an HEK293 cell line), the EC50 worked out at 0.55 µM.

`S=C(NCCc1ccccn1)Nc1ccccc1OCc1ccccc1` [Example A1]: in experiment [1] (read-out: Umami EC50), the EC50 is 1.31 µM.

For the compound `CC(C)c1ccc(NC(=S)NCCc2ccccn2)cc1` [Example A2], in experiment [1] (read-out: Umami EC50), the EC50 was 1.43 µM.

For the compound `CC(C)(C)c1ccc(NC(=S)NCCc2ccccn2)cc1` [Example A3], the EC50 in experiment [1] (read-out: Umami EC50) was 1.92 µM.

`CCc1ccc(NC(=S)NCCc2ccccn2)cc1` [Example A4]: the EC50 in experiment [1] (read-out: Umami EC50) worked out at 1.37 µM.

Regarding `CSc1ccc(NC(=S)NCCc2ccccn2)cc1` [Example A5], in experiment [1] (read-out: Umami EC50), the EC50 was found to be 3.26 µM.

For `CCCCc1ccc(NC(=S)NCc2ccc[nH]2)cc1` [Example B34], in experiment [2], the EC50 was found to be 5.96 µM.

As to `CC(C)Oc1ccc(NC(=S)NCc2cccnc2)cc1` [Example B35], in experiment [2], the EC50 stood at 6.71 µM.

With `C#Cc1ccc(NC(=S)NCc2cccs2)cc1` [Example B36], in experiment [2], the EC50 was 7 µM.

On to `CC(=O)c1ccc(NC(=S)NCc2ccoc2)cc1` [Example B37], for which the EC50 in experiment [2] worked out at 7.45 µM.

As to `S=C(NCc1ccc[nH]1)Nc1ccc(N2CCOCC2)cc1` [Example B38], in experiment [2], the EC50 turned out to be 8.17 µM.

As for `OCCSc1ccc(NC(=S)NCc2ccc[nH]2)cc1` [Example B39], in experiment [2], the EC50 was 8.5 µM.

Turning to `S=C(NCc1ccoc1)Nc1ccc2c(c1)OCO2` [Example B40], the EC50 in experiment [2] worked out at 11.6 µM.

For `CC(C)Oc1ccc(NC(=S)NCc2ccncc2)cc1` [Example B41], the EC50 in experiment [2] worked out at 14.2 µM.

Turning to `O=S(=O)(NCc1ccncc1)c1ccc(F)cc1` [Example B42], the EC50 in experiment [2] stood at 6.5 µM.

As for `Cc1cc(C)c(S(=O)(=O)NCc2ccncc2)c(C)c1` [Example B43], the EC50 in experiment [2] turned out to be 0.76 µM.

Regarding `CCOc1ccc(S(=O)(=O)NCc2ccncc2)cc1` [Example B44], in experiment [2], the EC50 was determined as 0.93 µM.

Turning to `COc1c(S(=O)(=O)NCc2ccncc2)ccc(Cl)c1Cl` [Example B45], the EC50 in experiment [2] stood at 2.18 µM.

Consider `CCCCOc1ccc(S(=O)(=O)Nc2cccnc2)cc1` [Example B46], for which the EC50 in experiment [2] came out at 2.19 µM.

`COc1ccc(S(=O)(=O)Nc2ccc3nn(C)cc3c2)cc1` [Example B47]: the EC50 in experiment [2] worked out at 2.94 µM.

Consider `COC(=O)COc1ccc(S(=O)(=O)Nc2ccc3c(c2)OCCO3)cc1` [Example B48], for which, in experiment [2], the EC50 was determined as 7.97 µM.

On to `COc1ccc(Cl)cc1S(=O)(=O)NCc1ccco1` [Example B49], for which, in experiment [2], the EC50 came to 8 µM.
